The source of these data is ChEMBL document CHEMBL4270669 (J Med Chem, 2018).

Calls of active or inactive are those of the source. No cut-off for these calls is given here.

The term Kd denotes the equilibrium constant for the complex coming apart. Lower therefore signals higher affinity.

The subject of data set [1] is Mus musculus. Put plainly: Increase in insulin levels in C57BL/6JRj mouse plasma at 50 mg/kg, po administered as single dose. It counts as functional, organism-based.
The subject of data set [2] is Mus musculus. Put plainly: Antiepileptic activity in Tsc1flox/flox/GFAP-Cre conditional knocked out mouse model assessed as reduction in seizures at 50 mg/kg, po qd treated from days 21 to 53 postnatal by electroencephalography. It counts as functional, organism-based.
Data set [3] concerns Rattus norvegicus. Put plainly: Increase in glucose levels in Sprague-Dawley rat plasma at 10 mg/kg, po administered as single dose after 8 hrs. The class given is functional, organism-based.
Data set [4] has as its system Rattus norvegicus. The experiment in a line: Increase in insulin levels in Sprague-Dawley rat plasma at 10 mg/kg, po administered as single dose. The class given is functional, organism-based.
Data set [5] concerns Mus musculus. Put plainly: Toxicity in BALB/C nude mouse xenografted with human OVCAR3 cells assessed as body weight loss at 50 mg/kg, po administered daily for 28 days relative to control. It counts as organism-based. To be noted: in vivo, 672 h. On the technique in general: Xenograft models place foreign cells or tissue in a host animal.
Data set [6] has as its system Mus musculus. Put plainly: Increase in glucose levels in C57BL/6JRj mouse plasma at 50 mg/kg, po administered as single dose. It counts as functional, organism-based.
The subject of data set [7] is OVCAR-3. Put plainly: Antitumor activity against human OVCAR3 cells xenografted in BALB/C nude mouse assessed as tumor growth inhibition at 50 mg/kg, po administered daily for 28 days relative to control. It counts as functional. Conditions: OVCAR-3, po, 672 h, read-out: TGI.
Data set [8] concerns the target Serine/threonine-protein kinase mTOR (Homo sapiens, UniProt P42345).
Description: Inhibition of human mTOR (1382 to 2549 residues) expressed in mammalian expression system by KINOMEscan assay
For data set [9], the target named is Phosphatidylinositol 3-kinase catalytic subunit type 3 (Homo sapiens, UniProt Q8NEB9). Put plainly: Inhibition of human VPS34 (282 to 879 residues) expressed in mammalian expression system by KINOMEscan assay.
For data set [10], the target named is Phosphatidylinositol 4,5-bisphosphate 3-kinase catalytic subunit beta isoform (Homo sapiens, UniProt P42338).
Description: Inhibition of human PI3Kbeta (118 to 1070 residues) expressed in mammalian expression system by KINOMEscan assay
Data set [11] addresses T1, Phosphatidylinositol 4,5-bisphosphate 3-kinase catalytic subunit delta isoform (Homo sapiens, UniProt O00329).
T1 sequence (O00329 whole entry): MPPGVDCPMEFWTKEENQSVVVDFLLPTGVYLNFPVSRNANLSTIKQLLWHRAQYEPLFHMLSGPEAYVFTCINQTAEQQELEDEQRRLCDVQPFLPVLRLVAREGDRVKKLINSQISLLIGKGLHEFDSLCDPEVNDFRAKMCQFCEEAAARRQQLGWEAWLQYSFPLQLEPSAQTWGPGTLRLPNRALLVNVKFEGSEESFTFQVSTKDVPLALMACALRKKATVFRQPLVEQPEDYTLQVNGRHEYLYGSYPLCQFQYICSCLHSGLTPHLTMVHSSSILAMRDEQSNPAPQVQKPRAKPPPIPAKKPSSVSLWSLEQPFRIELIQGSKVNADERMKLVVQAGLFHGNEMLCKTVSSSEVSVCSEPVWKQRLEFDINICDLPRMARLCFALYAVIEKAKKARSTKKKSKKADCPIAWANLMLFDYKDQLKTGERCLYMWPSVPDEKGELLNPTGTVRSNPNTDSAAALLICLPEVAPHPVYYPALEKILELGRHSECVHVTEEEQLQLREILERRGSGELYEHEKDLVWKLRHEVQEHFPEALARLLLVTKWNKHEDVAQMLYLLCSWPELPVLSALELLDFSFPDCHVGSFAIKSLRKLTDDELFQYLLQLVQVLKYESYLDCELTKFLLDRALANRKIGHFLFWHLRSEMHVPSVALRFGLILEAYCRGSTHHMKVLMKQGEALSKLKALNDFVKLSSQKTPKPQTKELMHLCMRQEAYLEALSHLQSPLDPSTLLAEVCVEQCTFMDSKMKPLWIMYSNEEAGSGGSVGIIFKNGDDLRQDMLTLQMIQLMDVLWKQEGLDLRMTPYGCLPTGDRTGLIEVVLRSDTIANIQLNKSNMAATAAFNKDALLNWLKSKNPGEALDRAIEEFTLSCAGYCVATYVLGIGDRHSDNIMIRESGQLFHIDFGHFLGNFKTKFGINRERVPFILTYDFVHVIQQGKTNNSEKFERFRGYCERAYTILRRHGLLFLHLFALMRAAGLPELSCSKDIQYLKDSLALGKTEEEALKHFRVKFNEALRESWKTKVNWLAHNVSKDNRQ
Description: Inhibition of human PI3Kdelta (108 to 1044 residues) expressed in mammalian expression system by KINOMEscan assay

Data set [12] has as its target Phosphatidylinositol 4,5-bisphosphate 3-kinase catalytic subunit gamma isoform (Homo sapiens, UniProt P48736).
Description: Inhibition of human PI3Kgamma (144 to 1102 residues) expressed in mammalian expression system by KINOMEscan assay
The target of data set [13] is Phosphatidylinositol 4,5-bisphosphate 3-kinase catalytic subunit alpha isoform (Homo sapiens, UniProt P42336).
Description: Inhibition of human PI3Kalpha (108 to 1068 residues) expressed in mammalian expression system by KINOMEscan assay
The nature of data set [14]: Ratio of drug level in Sprague-Dawley rat brain to plasma at 10 mg/kg, po administered as single dose. It counts as ADME, organism-based. Conditions: read-out: BPR.
The target in data set [15] is Phosphatidylinositol 4-kinase beta (Homo sapiens, UniProt Q9UBF8).
Description: Inhibition of human PI4Kbeta (1 to 828 residues) expressed in mammalian expression system by KINOMEscan assay
The nature of data set [16]: Drug uptake in Sprague-Dawley rat brain at 10 mg/kg, po administered as single dose after 4 hrs. The class given is ADME, organism-based. To be noted: read-out: Drug uptake.

Phosphatidylinositol 4,5-bisphosphate 3-kinase catalytic subunit beta isoform, sequence (P42338 whole entry, canonical isoform): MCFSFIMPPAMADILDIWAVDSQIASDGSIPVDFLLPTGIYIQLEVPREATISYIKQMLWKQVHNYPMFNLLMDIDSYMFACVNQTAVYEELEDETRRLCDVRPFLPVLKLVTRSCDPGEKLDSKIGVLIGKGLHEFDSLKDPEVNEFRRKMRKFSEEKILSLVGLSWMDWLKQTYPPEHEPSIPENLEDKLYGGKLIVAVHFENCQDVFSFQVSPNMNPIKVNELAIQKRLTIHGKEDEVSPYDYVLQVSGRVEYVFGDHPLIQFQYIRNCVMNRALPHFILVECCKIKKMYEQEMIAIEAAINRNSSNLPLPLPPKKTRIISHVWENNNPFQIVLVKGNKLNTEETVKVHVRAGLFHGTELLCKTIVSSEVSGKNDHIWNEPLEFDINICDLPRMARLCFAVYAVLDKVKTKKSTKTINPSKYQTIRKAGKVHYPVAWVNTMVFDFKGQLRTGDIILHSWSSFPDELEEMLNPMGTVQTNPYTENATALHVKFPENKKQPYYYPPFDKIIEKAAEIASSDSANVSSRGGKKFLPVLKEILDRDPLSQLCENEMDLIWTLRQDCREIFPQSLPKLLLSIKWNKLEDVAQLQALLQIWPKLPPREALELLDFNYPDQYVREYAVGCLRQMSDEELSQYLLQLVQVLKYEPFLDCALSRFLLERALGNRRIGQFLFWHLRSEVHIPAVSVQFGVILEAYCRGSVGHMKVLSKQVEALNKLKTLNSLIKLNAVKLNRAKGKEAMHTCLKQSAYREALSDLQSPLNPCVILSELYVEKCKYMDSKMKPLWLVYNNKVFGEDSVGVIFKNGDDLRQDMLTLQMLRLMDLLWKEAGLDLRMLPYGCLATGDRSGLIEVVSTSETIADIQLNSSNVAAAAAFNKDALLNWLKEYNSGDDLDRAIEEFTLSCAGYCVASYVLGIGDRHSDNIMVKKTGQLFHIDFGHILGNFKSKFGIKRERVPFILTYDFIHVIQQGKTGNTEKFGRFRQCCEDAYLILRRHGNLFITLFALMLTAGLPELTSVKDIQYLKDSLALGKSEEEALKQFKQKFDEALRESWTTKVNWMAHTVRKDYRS
Phosphatidylinositol 4-kinase beta, sequence (Q9UBF8 whole entry): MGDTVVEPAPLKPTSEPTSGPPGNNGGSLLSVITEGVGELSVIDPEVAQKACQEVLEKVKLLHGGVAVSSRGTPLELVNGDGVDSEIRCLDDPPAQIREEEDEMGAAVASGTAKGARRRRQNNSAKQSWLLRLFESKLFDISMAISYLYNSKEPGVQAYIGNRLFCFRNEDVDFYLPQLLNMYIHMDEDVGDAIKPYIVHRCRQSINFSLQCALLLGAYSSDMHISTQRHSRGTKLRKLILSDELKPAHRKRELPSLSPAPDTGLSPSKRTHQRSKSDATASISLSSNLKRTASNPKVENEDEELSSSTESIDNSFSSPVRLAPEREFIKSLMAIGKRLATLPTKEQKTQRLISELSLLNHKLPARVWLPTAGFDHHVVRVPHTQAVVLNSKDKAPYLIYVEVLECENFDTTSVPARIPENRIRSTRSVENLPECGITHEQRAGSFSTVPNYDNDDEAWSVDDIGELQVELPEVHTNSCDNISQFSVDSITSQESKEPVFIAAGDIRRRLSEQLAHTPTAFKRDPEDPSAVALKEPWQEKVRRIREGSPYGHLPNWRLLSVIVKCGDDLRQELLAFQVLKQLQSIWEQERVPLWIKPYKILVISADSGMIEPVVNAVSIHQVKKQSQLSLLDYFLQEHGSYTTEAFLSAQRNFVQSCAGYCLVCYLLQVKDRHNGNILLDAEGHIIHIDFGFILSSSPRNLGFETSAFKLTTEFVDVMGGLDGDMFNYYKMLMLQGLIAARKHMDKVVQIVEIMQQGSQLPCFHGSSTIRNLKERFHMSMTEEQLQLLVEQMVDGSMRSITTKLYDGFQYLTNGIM
Phosphatidylinositol 3-kinase catalytic subunit type 3, sequence (Q8NEB9 whole entry, the tested form may be a part, canonical isoform): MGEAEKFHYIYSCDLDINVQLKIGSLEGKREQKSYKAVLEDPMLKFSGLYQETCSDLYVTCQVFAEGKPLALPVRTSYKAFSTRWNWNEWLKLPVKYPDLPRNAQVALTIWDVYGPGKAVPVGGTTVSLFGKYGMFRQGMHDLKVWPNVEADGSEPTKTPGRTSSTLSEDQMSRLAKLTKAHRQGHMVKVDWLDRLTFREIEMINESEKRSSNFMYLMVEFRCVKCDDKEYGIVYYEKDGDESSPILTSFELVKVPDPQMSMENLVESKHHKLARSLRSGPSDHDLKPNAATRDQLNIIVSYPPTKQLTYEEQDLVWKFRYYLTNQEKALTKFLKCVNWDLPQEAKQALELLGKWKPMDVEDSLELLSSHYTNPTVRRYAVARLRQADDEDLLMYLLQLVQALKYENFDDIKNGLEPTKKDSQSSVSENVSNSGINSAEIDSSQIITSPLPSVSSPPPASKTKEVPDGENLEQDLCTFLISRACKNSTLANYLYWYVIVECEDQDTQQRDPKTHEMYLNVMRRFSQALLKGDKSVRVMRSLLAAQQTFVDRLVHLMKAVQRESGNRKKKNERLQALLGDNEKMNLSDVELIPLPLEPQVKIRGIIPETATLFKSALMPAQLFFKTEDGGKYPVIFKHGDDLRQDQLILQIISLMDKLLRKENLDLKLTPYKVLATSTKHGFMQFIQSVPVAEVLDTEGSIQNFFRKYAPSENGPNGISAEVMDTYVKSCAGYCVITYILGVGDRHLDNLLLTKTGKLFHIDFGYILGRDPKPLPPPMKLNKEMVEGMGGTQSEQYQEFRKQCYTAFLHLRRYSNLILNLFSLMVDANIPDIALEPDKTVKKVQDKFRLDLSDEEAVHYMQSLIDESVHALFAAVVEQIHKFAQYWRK
Phosphatidylinositol 4,5-bisphosphate 3-kinase catalytic subunit alpha isoform, sequence (P42336 whole entry, canonical isoform): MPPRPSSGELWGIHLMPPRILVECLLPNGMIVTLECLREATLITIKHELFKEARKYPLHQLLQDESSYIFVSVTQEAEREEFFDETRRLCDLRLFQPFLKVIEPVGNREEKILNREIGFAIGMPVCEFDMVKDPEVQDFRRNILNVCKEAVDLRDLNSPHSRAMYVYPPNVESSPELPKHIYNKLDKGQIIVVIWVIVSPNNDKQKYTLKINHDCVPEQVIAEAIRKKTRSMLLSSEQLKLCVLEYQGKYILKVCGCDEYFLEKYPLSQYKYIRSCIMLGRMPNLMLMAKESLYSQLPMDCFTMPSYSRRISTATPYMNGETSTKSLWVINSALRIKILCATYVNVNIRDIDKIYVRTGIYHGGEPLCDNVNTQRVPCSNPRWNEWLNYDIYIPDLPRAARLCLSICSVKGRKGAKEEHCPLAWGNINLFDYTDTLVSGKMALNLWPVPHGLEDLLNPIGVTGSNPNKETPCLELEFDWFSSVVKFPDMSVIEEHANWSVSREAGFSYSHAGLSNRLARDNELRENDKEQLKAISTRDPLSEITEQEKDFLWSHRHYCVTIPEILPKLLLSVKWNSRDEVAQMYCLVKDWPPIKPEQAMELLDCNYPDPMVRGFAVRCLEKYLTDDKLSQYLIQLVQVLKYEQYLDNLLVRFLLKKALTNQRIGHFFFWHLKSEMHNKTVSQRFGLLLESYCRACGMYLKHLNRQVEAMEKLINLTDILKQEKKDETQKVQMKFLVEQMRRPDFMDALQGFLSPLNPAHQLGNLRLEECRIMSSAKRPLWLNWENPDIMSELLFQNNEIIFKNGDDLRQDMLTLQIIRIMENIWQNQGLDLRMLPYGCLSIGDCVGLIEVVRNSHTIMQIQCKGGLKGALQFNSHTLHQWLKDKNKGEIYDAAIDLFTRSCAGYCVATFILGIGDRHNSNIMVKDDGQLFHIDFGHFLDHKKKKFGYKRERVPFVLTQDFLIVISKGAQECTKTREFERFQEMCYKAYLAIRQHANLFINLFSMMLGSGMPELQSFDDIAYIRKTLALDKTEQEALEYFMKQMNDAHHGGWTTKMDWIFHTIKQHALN
Phosphatidylinositol 4,5-bisphosphate 3-kinase catalytic subunit gamma isoform, sequence (P48736 whole entry, canonical isoform): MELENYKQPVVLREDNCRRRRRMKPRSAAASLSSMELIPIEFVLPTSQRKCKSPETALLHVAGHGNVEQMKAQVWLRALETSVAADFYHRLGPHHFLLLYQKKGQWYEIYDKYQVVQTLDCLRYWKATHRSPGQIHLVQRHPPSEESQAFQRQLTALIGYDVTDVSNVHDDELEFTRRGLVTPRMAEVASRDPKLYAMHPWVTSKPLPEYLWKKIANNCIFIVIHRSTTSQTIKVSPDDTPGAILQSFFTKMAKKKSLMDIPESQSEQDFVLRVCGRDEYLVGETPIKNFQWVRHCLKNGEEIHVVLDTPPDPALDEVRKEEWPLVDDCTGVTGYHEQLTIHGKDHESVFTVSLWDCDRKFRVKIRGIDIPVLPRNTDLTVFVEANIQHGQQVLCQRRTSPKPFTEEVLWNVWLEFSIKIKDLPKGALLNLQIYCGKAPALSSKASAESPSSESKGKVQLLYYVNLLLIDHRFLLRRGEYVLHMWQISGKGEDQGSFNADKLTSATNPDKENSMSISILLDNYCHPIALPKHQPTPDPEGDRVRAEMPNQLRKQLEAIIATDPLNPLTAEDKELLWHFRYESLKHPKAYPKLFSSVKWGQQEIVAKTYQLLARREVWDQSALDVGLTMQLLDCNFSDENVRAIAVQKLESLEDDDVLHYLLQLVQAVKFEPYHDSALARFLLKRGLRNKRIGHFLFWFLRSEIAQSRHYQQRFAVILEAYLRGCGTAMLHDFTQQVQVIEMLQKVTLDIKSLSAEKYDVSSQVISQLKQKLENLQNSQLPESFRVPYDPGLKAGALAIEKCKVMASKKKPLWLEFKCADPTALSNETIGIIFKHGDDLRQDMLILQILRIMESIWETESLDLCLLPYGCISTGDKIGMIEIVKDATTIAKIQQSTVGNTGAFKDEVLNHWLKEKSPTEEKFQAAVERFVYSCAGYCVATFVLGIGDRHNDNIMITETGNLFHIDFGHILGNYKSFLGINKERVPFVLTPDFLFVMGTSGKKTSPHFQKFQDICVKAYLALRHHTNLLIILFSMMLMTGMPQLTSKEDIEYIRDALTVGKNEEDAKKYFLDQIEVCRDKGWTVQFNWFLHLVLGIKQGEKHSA

With `Nc1cc(C(F)(F)F)c(-c2nc(N3CCOCC3)nc(N3CCOCC3)n2)cn1` [BIMIRALISIB], the result in data set [1], in [3], in data set [4] and in [6] was Active. For the same compound, in data set [2], the outcome was inactive. Besides, the Activity result in [5] is on record as “Non-Toxic”. For the same compound, in [7], the inhibition in vivo at 50 mg/kg is over 50%.
Take `CCC(CC)n1cnc2c(-c3cnc(N)cn3)nc(N3CC4CCC(C3)O4)nc21`: the result in data set [1] and in data set [4] was inactive. Also, the Kd in data set [8] was 0.00085 µM; in [9], 8.3 µM; in data set [10], 20 µM; in [11] it was over 30 µM; in data set [12], 22 µM; in [13], 2.7 µM. In addition, the Kd in [15] was over 30 µM. Moreover, the Kp in data set [14] was found to be 0.178. Besides, in [16], the concentration at 4 h worked out at 170 ng/g.
